# Assay results as given in patent US20190388389A1, “METHODS AND COMPOSITIONS OF CARNOSOL FOR INHIBITING UVB-INDUCED SKIN DAMAGE” (Ohio University, priority 2017, published 2019).
# Assays:
# phosphor-Chk = assay: Western blot of DNA damage marker, MEF cells; format: cell-based, mouse; settings: early stage post UVB 50 mJ/cm^2
# Procedure: (§1) FIGS. 5A-5B: Carnosol protects UVB-induced DNA damage. (FIG. 5A) HaCaT cells and (FIG. 5B) MEF cells were exposed to 50 mJ/cm^2 UVB radiation in the presence or absence of carnosol. Cells were lysed at indicated time point and protein levels of phosphorylated H2AX and Chk were measured. The data represents three sets of independent experiments.
# (§2) Cells were lysed with Nonidet P-40 (NP-40) lysis buffer (2% NP-40, 80 mM NaCl, 100 mM Tris-HCl pH 8.0, 0.1% SDS) with proteinase inhibitor mixture (Complete™, Roche Molecular Biochemicals) at indicated time point. Cell lysate was incubated on ice for 15 min and then centrifuged at 14,000 rpm at 4° C. for 15 min. Protein concentration was measured by Protein DC Assay kit (Bio-Rad Laboratories). Equal amounts of protein were subjected on SDS-PAGE and transferred to a nitrocellulose membrane. The membrane was then blocked in 5% milk in Tris buffered saline plus Tween 20 ® (TBST) for 45 min and probed with anti-yH2AX (Cell Signaling), anti-pCHK (Cell Signaling), anti-p276-NF-κB (Santa Cruz), anti-NF-κB p65 (Santa Cruz), anti-IκB (Santa Cruz), or anti-β-actin (Santa Cruz) at 4° C. overnight. After washing with TBST, the membrane was incubated with corresponding HRP-conjugated anti-rabbit or anti-mouse antibody for 45 min at room temperature. […]
# [1] = tested on: γH2AX (phosphorylated H2AX); assay: Western blot of DNA damage marker, MEF cells; format: cell-based, mouse; settings: early stage post UVB 50 mJ/cm^2
# Procedure: as §1, §2
# p-Chk = assay: Immunostaining of p-Chk in HaCaT cells upon UVB radiation; format: cell-based, Human; settings: immunofluorescence
# Excerpt: FIG. 5C: Immunostaining of p-Chk in HaCaT cells upon UVB radiation with or without carnosol treatment. P-Chk was stained with green fluorescent, while nucleus was stained by DAPI. Scale indicates 20 μm.
# Both human keratinocyte (HaCaT) and mouse embryonic fibroblast (MEF) cells were used, and the protein levels of γH2AX and phosphor-Chk were used as DNA damage marker. […] Similar results are observed in MEF cells as both the phosphorylation level of H2AX and Chk reduced at early stage post UVB radiation (FIG. 5B). […] To further show the protection effect of carnosol on UVB-irradiated cell, a comet assay was performed. […] Thus, carnosol ast least partially protect the DNA damage from UVB radiation.
# IκB [2] = assay: Western blot for IκB protein level, HaCaT cells; format: cell-based, Human
# Procedure: (§3) FIGS. 7A-7F: Carnosol inhibited UVB-induced NF-κB activation. Cells were exposed to UVB radiation in the presence or absence of carnosol. Cells were lysed at indicated time point and protein levels were measured by western blot analysis. (FIG. 7A) Western blot for IκB protein level in HaCaT cells at 2, 4 h post UVB radiation at 1, 10 or 20 μM carnosol treatment. (FIG. 7B) Western blot analysis for IκB protein level in HaCaT cells at 6 h post UVB radiation in the presence or absence of carnosol. (FIG. 7C) Western blot analysis for IκB protein level in MEF cells at 6 h post UVB radiation in the presence or absence of carnosol. (FIG. 7D) Western blot for 5276 site phosphorylation of NF-κB in HaCaT cells at 6 h post UVB with indicated carnosol concentration. (FIG. 7E) EMSA assay for HaCaT cells at 2, 4, 6 h post UVB radiation in the presence or absence of carnosol (20 μM). (FIG. 7F) Statistical analysis of the EMSA assay using two to three sets of independent experiments. *p<0.05 versus control group, **p<0.05 versus UV group at indicated time point.
# (§4) Cells were lysed with Nonidet P-40 (NP-40) lysis buffer (2% NP-40, 80 mM NaCl, 100 mM Tris-HCl pH 8.0, 0.1% SDS) with proteinase inhibitor mixture (Complete™, Roche Molecular Biochemicals) at indicated time point. […] Protein concentration was measured by Protein DC Assay kit (Bio-Rad Laboratories). […]
# IκB [3] = assay: Western blot for IκB protein level, MEF cells; format: cell-based, mouse; settings: 20 μM carnosol, 6 h post UVB
# Procedure: as §3, §4
# [4] = tested on: A431 human squamous carcinoma cell; assay: Clonogenic assay, A431; format: cell-based
# Procedure: FIGS. 9A-9B. Carnosol decreases A431 cancer cell progression. Squamous carcinoma cell A431 was used to determine the effect of carnosol on cancer cell progression. (FIG. 9A) Effect of carnosol on cell viability. Cells were treated upon 50 mJ/cm^2 UVB radiation with or without carnosol treatment. After 24 h, cells were collect and MTT assay was performed to determine the cell viability. *p<0.05 versus control group, **p<0.05 versus UV group at indicated time point. (FIG. 9B) Effect of carnosol on clonogenic assay. Cells were exposed to 8 mJ/cm^2 UVB exposure in the presence or absence of carnosol. 5×10^3 cells were plated into 6 well plate immediately after treatment and incubated for […]. The error bars present the standard deviation of three sets of independent experiments. *p<0.05 versus control group, **p<0.05 versus UV group at indicated time point.
# Immediate after treatment, cells were harvested with 0.25% trypsin-EDTA and counted, and then 5×10^3 cells were plated in 6-well plates. After 6 days, cells were fixed with cold methanol for 10 mM at […] and then stained by 1% crystal violet in 25% methanol for 10 mM. Cells were then rinsed with distilled water and colonies with a size greater than 0.4 mm were counted by Kodak IS in vivo F system equipped with Kodak Molecular Imaging Software (Eastman Kodak).
# normal skin cells = assay: Cell viability with carnosol or its UVB-decomposed molecules (FIG. 12); format: cell-based; settings: within 12 h after treatment
# Procedure: FIG. 12. The effect of carnosol or its decomposed molecules on cell viability. Cell viability assay of carnosol and its UVB-decomposed molecules on normal skin cells in a time dependent manner (6, 12, and 24 h after UVB radiation).
# (§5) UVB was generated from a Bench XX-Series UV Lamp (UVP Inc.) equipped with two 15-watt UVB tubes (UVP Inc.). The intensity of UVB was calibrated by a UVP model UVX digital radiometer (UVP Inc.) after the lamps warmed up for 5 min. For irradiating cells, the dose rate for 8 mJ/cm^2 or 50 mJ/cm^2 of UVB radiation was 0.8 or 3.8 mW/s respectively. Medium was removed before exposing the cells to UVB. After UVB radiation, fresh medium was added to the culture plates with or without drugs, and the cells were continue incubating at 37° C. with 5% CO2 until further analysis. Carnosol was disovled in DMSO and was irradiated with 50 mJ/cm^2 of UVB radiation at a dose rate of 3.8 mW/s before subjecting to cells or structure analysis using Mass Spectrum.
# [5] = UVB irradiation of carnosol in DMSO, Mass Spectrum; format: physicochemical; settings: 50 mJ/cm^2 UVB
# Procedure: FIG. 10B. The carnosol was irradiated with UVB first in the DMSO solution, and then a Mass Spectrum was run to detect the decomposition of the compound.
# FIG. 10C. Four major decomposed compounds were detected, with their molecular structure and weight solved.
# as §5
compound,measurement,setting,value
CC(C)c1cc2c(c(O)c1O)[C@@]13CCCC(C)(C)[C@@H]1C[C@@H]2OC3=O [carnosol],phosphorylation level of Chk,phosphor-Chk,reduced
same,phosphorylation level of H2AX,[1],reduced
same,UVB-induced expression level of p-Chk in nucleus,p-Chk,significantly reduce
same,IκB protein level,"IκB [2]; HaCaT, 2, 4 h post UVB, dose dependent (1, 10, 20 μM)",protects IκB level
same,IκB protein level,"IκB [2]; HaCaT, 6 h post UVB",protection exists at least until 6 h
same,IκB protein level,IκB [3],partial recovery of IκB level
same,effect of double treatment on reduction of cancer cell survival,"[4]; A431, carnosol and UVB radiation together",synergistic effect
same,colony formation,"[4]; A431, carnosol combined with 8 mJ/cm^2 UVB, UVB alone about 43%",about 17%
same,colony formation rate,"[4]; A431, carnosol treatment alone",about 65%
same,protection of cell damage from UVB radiation (viability),normal skin cells,can protect cell damage from UVB radiation in short term
same,decomposition upon UVB radiation,[5],breaks down to 4 major products
